According to US20220411750A1, “CELL STRUCTURE, PRODUCTION METHOD THEREOF, AND METHOD FOR EVALUATING HEPATOTOXICITY OF SUBSTANCE TO BE TESTED” (TOPPAN INC., priority 2019, published 2022):
Like-named read-outs stand apart in the source and are kept apart here.

How the values were obtained:
[1] = system: two-dimensional primary human hepatocytes (2D PHH); conditions: literature data, "Outside" = Outside measurement range; cited from earlier work
[2] = cited from earlier work; for Toxicity: Yes/No, Yes for No. 1-14, No for No. 15-18
[3] = maximum drug concentration used for MOS value; cited from earlier work
[4] = system: cell structure having a liver sinusoidal network produced using CMF (Example A); assay: Toxicity evaluation by ATP assay, cell structure of Example A (produced using CMF); conditions: for IC50: Homo sapiens, read-out: IC50 Example A; for MOS value [IC50/Cmax] Example A: ATP assay IC50 divided by Cmax; for MOS value [IC50/Cmax] Example A / IC50 Example A: cell structure produced using CMF, "Outside" = Outside measurement range; for IC50 Example A: ATP assay, drug medium from day 7, replaced day 10, assay after 14 days
Experimental: (§1) 100 mg of a type I collagen sponge fragment derived from pig skin (commercially available from NH Foods Ltd.) was heated at 200° C. for 24 hours, and thus a collagen component of which at least a part was cross-linked (cross-linked collagen component) was obtained. […] 50 mg of the cross-linked collagen component was put into a 15 mL tube, 5 mL of ultrapure water was added thereto, and the mixture was homogenized using a homogenizer (VH-10 commercially available from As One Corporation) for 6 minutes.
(§2) An aqueous solution containing the homogenized cross-linked collagen component was centrifuged at 10,000 rpm for 10 minutes under conditions of 21° C. The supernatant was suctioned, and collagen pellets were mixed with 5 mL of fresh ultrapure water to prepare a collagen solution. While the tube containing the collagen solution was kept on ice, an ultrasonic treatment was performed using a sonicator (VC50 commercially available from Sonics and Materials) at 100 V for 20 seconds, the sonicator was removed, and the tube containing the collagen solution was then cooled on ice for 10 seconds, which was repeated 100 times. After the ultrasonic treatment was performed 100 times, the collagen solution was filtered with a filter having a pore size of 40 μm to obtain a dispersion solution containing a defibrated collagen component (sCMF). The dispersion solution was freeze-dried by a conventional method to obtain a defibrated collagen component (sCMF) as a dried product.
(§3) A dispersion solution A in which the defibrated collagen component was dispersed in a medium (DMEM) containing serum in which 10 mg/mL of fibrinogen (commercially available from Sigma) was dissolved so that the concentration was 30 mg/mL was obtained. In addition, a dispersion solution B in which cells were dispersed in a medium (DMEM) containing serum in which 10 U/mL of thrombin (commercially available from Sigma) was dissolved so that the total number of cells per well was 30,000 cells. 10 μL of a suspension in which the obtained dispersion solution A (defibrated collagen component) and dispersion solution B were mixed at 1:1 was added to each well of a 48-well plate.
(§4) Regarding the medium, a mixed medium (mass ratio: 1:1) containing a medium for vascular endothelia 1 (ECM) and a medium for mesenchymal stem cell proliferation (MSCGM2), a medium for vascular endothelia 1 (ECM), or a medium for vascular endothelia 1 (ECM) and a medium for hepatocytes (d-HCGM) were used.
(§5) 10 days after the start of the culture, again, the medium was replaced with a medium in which the drug was dissolved, and after 14 days, the cell activity was quantified by ATP assay.
(§6) The toxicity was evaluated with IC50 and MOS value. The MOS value is an index used for toxicity evaluation as a value considering the maximum drug concentration (Cmax).

[5] = system: cell structure having a liver sinusoidal network produced using heparin and a collagen solution (Example B); assay: Toxicity evaluation by ATP assay, cell structure of Example B (produced using heparin and a collagen solution); conditions: for IC50: Homo sapiens, read-out: IC50 Example B; for IC50 Example B: ATP assay, cell structure produced using heparin and collagen solution
Experimental: as §5
(§7) PXB cells, SEC and LX2 were mixed so that the following proportions and cell amount were obtained, and thereby a cell mixture was obtained. • Total amount of cells per well: 30,000 cells • Cell proportions in tissue:
(§8) The same amounts of 1.0 mg/mL heparin solution (buffer: 100 mM Tris-HCL) and 0.3 mg/mL collagen solution (buffer: 5 mM acetate) were mixed to obtain a heparin/collagen solution.
(§9) 100 μL of the heparin/collagen solution was added to the cell mixture and suspended until the cells were visible, and then centrifuged (400 g×2 min), and a viscous component was formed in the solution.
(§10) After the supernatant was removed from the solution containing the viscous component, a 20 U/mL thrombin solution (solvent: HCM (culture medium for hepatocytes)) was added so that the final volume of the solution was “the number of wells to be seeded”×2 μL volume of the solution, and thereby a cell suspension was obtained.
(§11) 10 mg/mL of a fibrinogen solution was put into a 48 plate, and droplets were formed. The cell suspension was added into the droplets, and then left in the incubator for 40 minutes, and a fibrin gel was formed.
(§12) 0.5 mL of HCM (containing endothelial cell growth supplement) was added to each well in which the fibrin gel was formed, and a liver model was obtained as a cell structure.
as §6

[6] = system: liver sinusoidal network of liver model (PXB cells, SEC, LX2); assay: Monocrotaline administration experiment, CD31 immunostaining of liver model; format: cell-based, human; conditions: monocrotaline 2,000, 666, 222 or 74 μM on Day 1 and Day 4; observed Day 7; 1% DMSO
Experimental: 1 day (Day 1) and 4 days (Day 4) after the start of the culture of the liver model, administration was performed on the liver model by replacing the medium with a medium containing monocrotaline at a concentration of 2,000 μM, 666 μM, 222 μM, or 74 μM. Here, the compound used was dissolved in advance in DMSO at a high concentration and stored, and during administration, DMSO was contained at a concentration of 1% in the medium. Since 1% DMSO was contained in each administration condition, replacement of the medium with a medium containing only 1% DMSO was performed at the same time, and the result was used as a negative control.
For the samples on which administration was performed, a fixing treatment, a permeation treatment, blocking, a primary antibody treatment, a secondary antibody treatment, imaging and area calculation and evaluation were performed in that order. Hereinafter, the procedure from the fixing treatment to evaluation will be described. […]
The intensities of the images captured by the above method were added up to obtain a fluorescence observation image of each liver model.

[7] = system: cell structure having a liver sinusoidal network produced using CMF (Example A); conditions: human
Experimental: as §1, §2, §3, §4, §5, §6

[8] = system: cell structure having a liver sinusoidal network produced using heparin and a collagen solution (Example B); conditions: human
Experimental: as §5, §7, §8, §9, §10, §11, §12, §6

[9] = system: 3D human liver microtissues (3D hLiMT); conditions: literature data, "Outside" = Outside measurement range; cited from earlier work
[10] = "Outside" = Outside measurement range

In the case of `CN(CCOc1ccc(CC2SC(=O)NC2=O)cc1)c1ccccn1` (stereo not drawn) [Rosiglitazone], the “MOS value [IC50/Cmax] Reference Example A” value [1] is given as “Outside”, the Toxicity [2] is given as “Yes” and the Cmax [3] is given as 1.04 µM. It also gave an IC50 [4] of 46.5 µM and an IC50 [5] of 79.1 µM.

With `C[C@H]1C(=O)O[C@@H]2CCN3CC=C(COC(=O)[C@](C)(O)[C@]1(C)O)[C@H]23` [monocrotaline] the “Fragmentation of liver sinusoidal network (CD31 immunostaining)” value [6] was “liver sinusoidal network became fragmented as the monocrotaline concentration increased”.

For `C1CCC(C(CC2CCCCN2)C2CCCCC2)CC1` (stereo not drawn) [Perhexiline], the “MOS value [IC50/Cmax] Example A” value [7] is given as 2.5, the “MOS value [IC50/Cmax] Example B” value [8] is given as 1.5 and the Toxicity [2] is given as “Yes”. The IC50 [4] was 5.4 µM and the IC50 [5] was 3.2 µM.

For `C[C@H]1COc2c(N3CCN(C)CC3)c(F)cc3c(=O)c(C(=O)O)cn1c23` [Levofloxacin], the “MOS value [IC50/Cmax] Reference Example A” value [1] is given as “Outside”, the “MOS value [IC50/Cmax] Reference Example B” value [9] is given as “Outside” and the Toxicity [2] is given as “Yes”. The Cmax [3] was 15.8 µM, the “MOS value [IC50/Cmax] Example A” value [4] was “Outside” and the IC50 [5] was 960 µM.

In the case of `CC(=O)Nc1ccc(O)cc1` [Acetaminophen], the Toxicity [2] is listed as “Yes”, the Cmax [3] is listed as 165 µM and the IC50 [4] is listed as 761 µM. It also gave an IC50 [5] of 868 µM.

In the case of `COc1ccccc1Oc1c(NS(=O)(=O)c2ccc(C(C)(C)C)cc2)nc(-c2ncccn2)nc1OCCO` [Bosentan], the “MOS value [IC50/Cmax] Reference Example A” value [1] is listed as “Outside”, the Toxicity [2] is listed as “Yes” and the Cmax [3] is listed as 7.43 µM. For the same molecule, the IC50 [4] was 67.1 µM and the IC50 [5] was 209 µM.

For `O=P1(N(CCCl)CCCl)NCCCO1` (stereo not drawn) [Cyclophosphamide], the “MOS value [IC50/Cmax] Reference Example A” value [1] is given as “Outside”, the “MOS value [IC50/Cmax] Reference Example B” value [9] is given as “Outside” and the Toxicity [2] is given as “Yes”. The Cmax [3] was 143 µM, the IC50 [4] was 1670 µM and the IC50 [5] was 1360 µM.

For `Cc1ccc(C(=O)c2cc(O)c(O)c([N+](=O)[O-])c2)cc1` [Tolcapone], the Toxicity [2] is listed as “Yes”, the Cmax [3] is listed as 47.6 µM and the IC50 [4] is listed as 32.4 µM. It also gave an IC50 [5] of 88.7 µM.

For `CN(C)C(=O)Oc1ccc[n+](C)c1` [Pyridostigmine], the Toxicity [2] is listed as “No”, the Cmax [3] is listed as 1.1 µM and the “IC50 Example A” value [4] is listed as “Outside”. For the same molecule, the “IC50 Example B” value [5, 10] was “Outside”.

For `Cc1c(C)c2c(c(C)c1O)CCC(C)(COc1ccc(CC3SC(=O)NC3=O)cc1)O2` (stereo not drawn) [Troglitazone], the Toxicity [2] is given as “Yes”, the IC50 [4] is given as 17.1 µM and the IC50 [5] is given as 50.2 µM.

In the case of `CCOC(=O)CN[C@@H](C(=O)N1CC[C@H]1C(=O)NCc1ccc(/C(N)=N\O)cc1)C1CCCCC1` [Ximelagatran], the Toxicity [2] is given as “Yes” and the Cmax [3] is given as 0.45 µM.

For `Cc1ccc(N(CC2=NCCN2)c2cccc(O)c2)cc1` [Phentolamine], the Toxicity [2] is given as “No”, the Cmax [3] is given as 0.09 µM and the IC50 [4] is given as 180 µM. It also gave an IC50 [5] of 66 µM.

For `CCc1nn(CCCN2CCN(c3cccc(Cl)c3)CC2)c(=O)n1CCOc1ccccc1` [Nefazodone], the Toxicity [2] is listed as “Yes”, the Cmax [3] is listed as 4.26 µM and the IC50 [4] is listed as 22.1 µM. For the same molecule, the IC50 [5] was 32.4 µM.

For `Nc1cc(N2CCCCC2)nc(N)[n+]1[O-]` [Minoxidil0], the Cmax [3] is listed as 1.19 µM, the “IC50 Example A” value [4] is listed as “Outside” and the “IC50 Example B” value [5, 10] is listed as “Outside”.

For `CCOC(=O)c1ncn2c1CN(C)C(=O)c1cc(F)ccc1-2` [Flumazenil], the “MOS value [IC50/Cmax] Reference Example A” value [1] is given as “Outside”, the “MOS value [IC50/Cmax] Reference Example B” value [9] is given as “Outside” and the Toxicity [2] is given as “No”. The “DILI severity category (LKBT)” value ([2]; drug-induced liver injury severity category) was “I”, the Cmax [3] was 1.12 µM and the “MOS value [IC50/Cmax] Example A” value [4] was “Outside”. The “IC50 Example A” value [4] was “Outside”, the “MOS value [IC50/Cmax] Example B” value ([5]; ATP assay IC50 divided by Cmax, cell structure produced using heparin and collagen, "Outside" = Outside measurement range) was “Outside” and the “IC50 Example B” value [5, 10] was “Outside”.

In the case of `Cc1onc(-c2c(F)cccc2Cl)c1C(=O)N[C@@H]1C(=O)N2[C@@H]1SC(C)(C)[C@@H]2C(=O)O` [Flucloxacillin], the Toxicity [2] is given as “Yes”, the Cmax [3] is given as 66.1 µM and the IC50 [4] is given as 1390 µM. The IC50 [5] was 5800 µM.

In the case of `O=C(O)Cc1ccccc1Nc1c(Cl)cccc1Cl` [Diclofenac], the Cmax [3] is given as 10.1 µM, the IC50 [4] is given as 64.1 µM and the IC50 [5] is given as 232 µM.
